From ChEMBL document CHEMBL3751793, “Preparation of N-Phenyl-lactam Derivatives Capable of Stimulating Neurogenesis and Their Use in the Treatment of Neurological Disorders” (2015)

System: NSC
Assay: Increase in cell proliferation of human NSC cells assessed as increase in ATP level after 4 days by CelltiterGlo assay
Type: functional

Q: With `COc1cc(N2CCC(c3cccc(Cl)c3)C2=O)ccc1-c1cn[nH]c1` (stereo not drawn) as the compound, how does the EC150 read?
A: 65.9 nM

Q: Which EC150 does the source give for `COc1cccc(C2CCN(c3ccc(-c4cnco4)c(OC)c3)C2=O)c1` (stereo not drawn) here?
A: 81.4 nM

Q: How did the EC150 turn out when `COc1cccc(C2CCN(c3ccc(-c4cn[nH]c4)c(OC)c3)C2=O)c1` (stereo not drawn) was run?
A: 29.9 nM

Q: Which EC150 does the source give for `COc1cc(N2CCN(Cc3cccc(OC(F)(F)F)c3)C2=O)ccc1-c1cn[nH]c1` here?
A: 9.2 nM

Q: `COc1cccc(C2CCN(c3ccc(-c4ccncc4)cc3)C2=O)c1` (stereo not drawn) was tested. Which EC150 did it give?
A: 15.5 nM

Q: With `COc1cc(N2CCN(Cc3ccccc3C(F)(F)F)C2=O)ccc1-c1ccncc1` as the compound, how does the EC150 read?
A: 35.1 nM

Q: `COc1cc(N2CCC(c3ccccc3)C2=O)ccc1-c1cn[nH]c1` (stereo not drawn) was tested. Which EC150 did it give?
A: 41.4 nM

Q: For `COc1cccc(CN2CCN(c3ccc(-c4cn[nH]c4)c(OC)c3)C2=O)c1`, which EC150 is on record?
A: 23.9 nM

Q: For `COc1cccc(CN2CCN(c3ccc(-c4cn[nH]c4)c(F)c3)C2=O)c1`, which EC150 is on record?
A: 15.7 nM

Q: With `COc1cc(N2CCN(Cc3cccc(F)c3)C2=O)ccc1-c1cn[nH]c1` as the compound, how does the EC150 read?
A: 47 nM

Q: `CCOc1cccc(CN2CCN(c3ccc(-c4cn[nH]c4)c(OC)c3)C2=O)c1` was tested. Which EC150 did it give?
A: 73.9 nM

Q: For `COc1cc(N2CCN(Cc3cccc(C(F)(F)F)c3)C2=O)ccc1-c1cn[nH]c1`, which EC150 is on record?
A: 8.6 nM

Q: Which EC150 does the source give for `COc1cc(N2CCN(Cc3cccc(C)c3)C2=O)ccc1-c1ccncc1` here?
A: 29.8 nM

Q: Which EC150 does the source give for `COc1cc(N2CCN(Cc3ccncc3)C2=O)ccc1-c1cn[nH]c1` here?
A: 42 nM

Q: `COc1cccc(C2CCN(c3ccc(-c4ccncc4)c(OC)c3)C2=O)c1` (stereo not drawn) was tested. Which EC150 did it give?
A: 61.3 nM

Q: How did the EC150 turn out when `COc1cccc(CN2CCN(c3ccc(-c4cn[nH]c4)cc3F)C2=O)c1` was run?
A: 41.6 nM

Q: `O=C1C(c2ccc(F)cc2)CCN1c1ccc(-c2cn[nH]c2)cc1` (stereo not drawn) was tested. Which EC150 did it give?
A: 41.7 nM

Q: `COc1cc(N2CCC(c3cccc(F)c3)C2=O)ccc1-c1cn[nH]c1` (stereo not drawn) was tested. Which EC150 did it give?
A: 77.6 nM
